Results reported in patent US20080152717A1 (ISP INVESTMENTS, INC., priority 2006, published 2008).

Assay: Relative bioavailability in fasted male Sprague Dawley rats, oral solid dose 100 mg/kg (Example 2)
Type: in vivo
Conditions: male Sprague Dawley rat, oral solid dose 100 mg/kg
Experimental: The relative bioavailability of the PVP based composition of Example 1 was compared to the crystalline form in male Sprague Dawley rat in a parallel study design. An oral, solid dose of 100 mg/kg was administered to the rats in the fasted state.

With `CCCCC(=O)N(Cc1ccc(-c2ccccc2-c2nnn[nH]2)cc1)[C@H](C(=O)O)C(C)C` [Valsartan, N-(1-oxopentyl)-N-[[2′-(1H-tetrazol-5-yl) [biphenyl]-4-yl]methyl]-L-valine] the “AUC0-24h (area under the drug plasma concentration vs. time profile)” value was 40000 ng·h/mL.
